Results from PubChem BioAssay (NCI).
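Assay format: 96-well plates, 48-hour exposure. GI50 is the concentration that inhibits growth by half. The concentration for full growth arrest is given as TGI.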

Tests used:
Experiment in all cases: DTP human tumour cell line panel, 48 h
OVCAR-8 ovarian = test system: OVCAR-8 ovarian
786-0 renal = test system: 786-0 renal
SNB-75 CNS = test system: SNB-75 CNS
NCI-H522 lung = test system: NCI-H522 lung
A549 NSCLC = test system: A549 NSCLC
HOP-92 NSCLC = test system: HOP-92 NSCLC
HCT-116 colon = test system: HCT-116 colon
SK-MEL-28 melanoma = test system: SK-MEL-28 melanoma
TK-10 renal = test system: TK-10 renal
M14 melanoma = test system: M14 melanoma
MOLT-4 leukemia = test system: MOLT-4 leukemia
HCC-2998 colon = test system: HCC-2998 colon
RXF-631 renal = test system: RXF-631 renal
RPMI-8226 leukemia = test system: RPMI-8226 leukemia
HCT-15 colon = test system: HCT-15 colon
KM20L2 colon = test system: KM20L2 colon
OVCAR-5 ovarian = test system: OVCAR-5 ovarian
EKVX NSCLC = test system: EKVX NSCLC
K-562 leukemia = test system: K-562 leukemia
SK-OV-3 ovarian = test system: SK-OV-3 ovarian
SW-620 colon = test system: SW-620 colon
UACC-62 melanoma = test system: UACC-62 melanoma
U251 CNS = test system: U251 CNS
NCI-H460 lung = test system: NCI-H460 lung
UO-31 renal = test system: UO-31 renal
MALME-3M melanoma = test system: MALME-3M melanoma
SNB-78 CNS = test system: SNB-78 CNS
COLO 205 colon = test system: COLO 205 colon
SNB-19 CNS = test system: SNB-19 CNS
SK-MEL-2 melanoma = test system: SK-MEL-2 melanoma
SF-539 CNS = test system: SF-539 CNS
DMS 273 small cell lung = test system: DMS 273 small cell lung
SK-MEL-5 melanoma = test system: SK-MEL-5 melanoma
IGROV1 ovarian = test system: IGROV1 ovarian
NCI-H23 lung = test system: NCI-H23 lung
M19-MEL melanoma = test system: M19-MEL melanoma
HOP-62 NSCLC = test system: HOP-62 NSCLC
ACHN renal = test system: ACHN renal
OVCAR-3 ovarian = test system: OVCAR-3 ovarian
SN12C renal = test system: SN12C renal
DMS 114 small cell lung = test system: DMS 114 small cell lung
A498 renal = test system: A498 renal
SF-268 CNS = test system: SF-268 CNS
KM12 colon = test system: KM12 colon
HT29 colon = test system: HT29 colon
OVCAR-4 ovarian = test system: OVCAR-4 ovarian
LXFL 529 NSCLC = test system: LXFL 529 NSCLC
SF-295 CNS = test system: SF-295 CNS
DLD-1 colon = test system: DLD-1 colon
CCRF-CEM leukemia = test system: CCRF-CEM leukemia
LOX IMVI melanoma = test system: LOX IMVI melanoma
UACC-257 melanoma = test system: UACC-257 melanoma
HL-60(TB) leukemia = test system: HL-60(TB) leukemia
NCI-H226 lung = test system: NCI-H226 lung
RXF 393 renal = test system: RXF 393 renal
CAKI-1 renal = test system: CAKI-1 renal

Question: Cc1cc2c(C=O)[nH]nc2c(C#N)c1C was tested. Which TGI (OVCAR-8 ovarian) did it give?
Answer: Its TGI is greater than 100 µM.

Question: And the TGI (786-0 renal)?
Answer: Its TGI is greater than 100 µM.

Question: What about the TGI (SNB-75 CNS) of the same compound?
Answer: Its TGI is 40.9 µM.

Question: And the TGI (NCI-H522 lung)?
Answer: Its TGI is 22.7 µM.

Question: And the TGI (A549 NSCLC)?
Answer: The TGI was greater than 100 µM.

Question: What about the TGI (HOP-92 NSCLC) of the same compound?
Answer: The TGI was 99.4 µM.

Question: What about the TGI (HCT-116 colon) of the same compound?
Answer: The TGI was greater than 100 µM.

Question: And the TGI (SK-MEL-28 melanoma)?
Answer: Its TGI is greater than 100 µM.

Question: What about the TGI (TK-10 renal) of the same compound?
Answer: Its TGI is greater than 100 µM.

Question: What about the TGI (M14 melanoma) of the same compound?
Answer: The TGI was greater than 100 µM.

Question: What about the TGI (MOLT-4 leukemia) of the same compound?
Answer: Its TGI is greater than 100 µM.

Question: What about the TGI (HCC-2998 colon) of the same compound?
Answer: The TGI was greater than 100 µM.

Question: And the TGI (RXF-631 renal)?
Answer: Its TGI is greater than 100 µM.

Question: What about the TGI (RPMI-8226 leukemia) of the same compound?
Answer: The TGI was greater than 100 µM.

Question: What about the TGI (HCT-15 colon) of the same compound?
Answer: Its TGI is greater than 100 µM.

Question: What about the TGI (KM20L2 colon) of the same compound?
Answer: Its TGI is greater than 100 µM.

Question: And the TGI (OVCAR-5 ovarian)?
Answer: Its TGI is greater than 100 µM.

Question: And the TGI (EKVX NSCLC)?
Answer: The TGI was greater than 100 µM.

Question: What about the TGI (K-562 leukemia) of the same compound?
Answer: Its TGI is greater than 100 µM.

Question: What about the TGI (SK-OV-3 ovarian) of the same compound?
Answer: Its TGI is greater than 100 µM.

Question: And the TGI (SW-620 colon)?
Answer: Its TGI is greater than 100 µM.

Question: What about the TGI (UACC-62 melanoma) of the same compound?
Answer: Its TGI is greater than 100 µM.

Question: And the TGI (U251 CNS)?
Answer: Its TGI is greater than 100 µM.

Question: What about the TGI (NCI-H460 lung) of the same compound?
Answer: Its TGI is greater than 100 µM.

Question: What about the TGI (UO-31 renal) of the same compound?
Answer: The TGI was greater than 100 µM.

Question: What about the TGI (MALME-3M melanoma) of the same compound?
Answer: The TGI was greater than 100 µM.

Question: What about the TGI (SNB-78 CNS) of the same compound?
Answer: Its TGI is greater than 100 µM.

Question: What about the TGI (COLO 205 colon) of the same compound?
Answer: Its TGI is greater than 100 µM.

Question: What about the TGI (SNB-19 CNS) of the same compound?
Answer: Its TGI is greater than 100 µM.

Question: And the TGI (SK-MEL-2 melanoma)?
Answer: Its TGI is greater than 100 µM.

Question: What about the TGI (SF-539 CNS) of the same compound?
Answer: The TGI was 61.4 µM.

Question: And the TGI (DMS 273 small cell lung)?
Answer: The TGI was greater than 100 µM.

Question: What about the TGI (SK-MEL-5 melanoma) of the same compound?
Answer: Its TGI is greater than 100 µM.

Question: What about the TGI (IGROV1 ovarian) of the same compound?
Answer: The TGI was greater than 100 µM.

Question: What about the TGI (NCI-H23 lung) of the same compound?
Answer: Its TGI is greater than 100 µM.

Question: What about the TGI (M19-MEL melanoma) of the same compound?
Answer: The TGI was greater than 100 µM.

Question: And the TGI (HOP-62 NSCLC)?
Answer: The TGI was greater than 100 µM.

Question: And the TGI (ACHN renal)?
Answer: The TGI was greater than 100 µM.

Question: What about the TGI (OVCAR-3 ovarian) of the same compound?
Answer: Its TGI is greater than 100 µM.

Question: What about the TGI (SN12C renal) of the same compound?
Answer: The TGI was 78.6 µM.

Question: And the TGI (DMS 114 small cell lung)?
Answer: The TGI was 99.3 µM.

Question: What about the TGI (A498 renal) of the same compound?
Answer: Its TGI is greater than 100 µM.

Question: What about the TGI (SF-268 CNS) of the same compound?
Answer: Its TGI is greater than 100 µM.

Question: And the TGI (KM12 colon)?
Answer: The TGI was greater than 100 µM.

Question: And the TGI (HT29 colon)?
Answer: The TGI was greater than 100 µM.

Question: And the TGI (OVCAR-4 ovarian)?
Answer: The TGI was greater than 100 µM.

Question: And the TGI (LXFL 529 NSCLC)?
Answer: The TGI was greater than 100 µM.

Question: What about the TGI (SF-295 CNS) of the same compound?
Answer: Its TGI is greater than 100 µM.

Question: And the TGI (DLD-1 colon)?
Answer: Its TGI is greater than 100 µM.

Question: What about the TGI (CCRF-CEM leukemia) of the same compound?
Answer: Its TGI is greater than 100 µM.

Question: What about the TGI (LOX IMVI melanoma) of the same compound?
Answer: The TGI was greater than 100 µM.

Question: What about the TGI (UACC-257 melanoma) of the same compound?
Answer: The TGI was greater than 100 µM.

Question: Which results are given for COc1cccc(/C=N/[N-]C(N)=O)c1[O-].[Cu+2].c1ccncc1?
Answer: TGI (OVCAR-8 ovarian): 86.1 µM; TGI (786-0 renal): 24 µM; TGI (SNB-75 CNS): 33.4 µM; TGI (NCI-H522 lung): 34.6 µM; TGI (A549 NSCLC): 34.9 µM; TGI (HOP-92 NSCLC): 31.5 µM; TGI (HCT-116 colon): 32 µM; TGI (SK-MEL-28 melanoma): 33.9 µM; TGI (M14 melanoma): 31.4 µM; TGI (MOLT-4 leukemia): 69.3 µM; TGI (HCC-2998 colon): > 100 µM; GI50 (HL-60(TB) leukemia): 26.5 µM; TGI (HL-60(TB) leukemia): 55.1 µM; TGI (RPMI-8226 leukemia): 67.1 µM; TGI (HCT-15 colon): > 100 µM; TGI (NCI-H226 lung): 44.6 µM; TGI (KM20L2 colon): > 100 µM; TGI (OVCAR-5 ovarian): 45.1 µM; TGI (EKVX NSCLC): 65.5 µM; TGI (K-562 leukemia): 58.5 µM; TGI (SK-OV-3 ovarian): 49.7 µM; TGI (SW-620 colon): 40.8 µM; TGI (UACC-62 melanoma): 41.1 µM; TGI (U251 CNS): 32.2 µM; TGI (NCI-H460 lung): 31.9 µM; TGI (UO-31 renal): 44.3 µM; TGI (MALME-3M melanoma): 28.3 µM; TGI (COLO 205 colon): 32.2 µM; TGI (SNB-19 CNS): 25 µM; TGI (SK-MEL-2 melanoma): 58.5 µM; TGI (SF-539 CNS): 54.2 µM; TGI (RXF 393 renal): 28.6 µM; TGI (SK-MEL-5 melanoma): 37.2 µM; TGI (IGROV1 ovarian): 49.9 µM; TGI (NCI-H23 lung): 45.8 µM; TGI (HOP-62 NSCLC): 52.1 µM; TGI (ACHN renal): > 100 µM; TGI (OVCAR-3 ovarian): 28.8 µM; TGI (SN12C renal): 46.7 µM; TGI (A498 renal): 45.5 µM; TGI (SF-268 CNS): 39.2 µM; TGI (KM12 colon): 35.9 µM; TGI (HT29 colon): 85.3 µM; TGI (OVCAR-4 ovarian): 56.2 µM; TGI (SF-295 CNS): 62.4 µM; TGI (CCRF-CEM leukemia): 56.2 µM; TGI (CAKI-1 renal): 31.1 µM; TGI (LOX IMVI melanoma): 36.5 µM; TGI (UACC-257 melanoma): > 100 µM
